The source of these data is EPA's ToxValDB 9.5 (doi:10.2903/j.efsa.2014.3913).

The subject of series [1] is Daphnia magna. As to conditions: chronic/long-term; duration: 21 days.
Series [2] relates to Cyprinodon variegatus.
Series [3] concerns Oryctolagus sp. As to conditions: reproduction developmental; organ weight.
Series [4] has as its system Chironomus tentans. The following applies: chronic/long-term; duration: 28 days.
Series [5] deals with Bibionidae. The following applies: chronic/long-term; duration: 28 days.
In series [6] the test system is Anas platyrhynchos.
Series [7] has as its system Folsomia candida. The following applies: chronic/long-term.
Series [8] relates to Rattus norvegicus. As to conditions: acute; mortality.
Series [9] deals with Poephila guttata. As to conditions: acute; oral; unspecified; mortality.
Series [10] deals with Apis mellifera. The following applies: acute, mortality.
Series [11] relates to Hypoaspis aculeifer. The following applies: chronic/long-term.
In series [12] the test system is Neomysis kadiakensis.
The subject of series [13] is Tagia sp.
In series [14] the test system is Colinus virginianus. The following applies: for LD50: acute, oral, mortality.
The mark [15] stands for this setting: acute, duration: 96 hours, mortality.
Setting [16] is: chronic/long-term, duration: 28 days.

As usually defined, the NOAEL is the highest dose or exposure tested at which no adverse effect was seen.

Take `COC(=O)c1nc(-c2ccc(Cl)c(OC)c2F)cc(N)c1Cl` [Halauxifen-methyl]: the NOEC in series [1] turned out to be 0.144 mg/L; in series [2] (setting [16]) it was 0.0115 mg/L; in series [4] it was 89.3 mg/kg; in series [5], 1.26 mg/L; in series [7], 500 mg/kg; in series [11] it was 12.5 mg/kg. Further, the NOEC in series [12] (setting [16]) came out at 0.152 mg/L; in series [13] (chronic/long-term, duration: 8 weeks) it was 5 mg/kg. In addition, the LC50 in series [2] (setting [15]) was greater than 1.33 µg/mL; in series [12] (setting [15]) it was greater than 1.3 µg/mL; in series [13] (acute, duration: 14 days, mortality), greater than 500 mg/kg. Also, the NOAEL in series [3] is 5.78 mg/kg-day; in [6] (reproductive, reproduction), 160 mg/kg-day; in series [14] (reproduction developmental, reproduction), 36.9 mg/kg-day. For the same compound, the LD50 in [6] (short-term, oral, feed, mortality) is greater than 2090 mg/kg-day; in series [8], greater than 5000 mg/kg; in [9] it was greater than 2250 mg/kg; in series [10] (dermal) it was greater than 98.1 µg/piece; in series [10] (oral, unspecified), greater than 108 µg/piece; in [14] (diet), greater than 1330 mg/kg-day. The compound also came in with an LD50 in series [14] greater than 2250 mg/kg.
